In PubChem BioAssay AID2305 (GlaxoSmithKline (GSK), 2010):
pIC50: −log10 of the molar value.

What follows are molecules tested on P. falciparum 3D7 growth, pLDH absorbance (assay: blood-stage malaria parasite growth potency – strain 3D7, dose response (AID 2305)).

Q: With `CCN(CC)CCN1C(=O)C(O)(c2ccccc2Cl)c2c1cc(C(N)=O)cc2C(F)(F)F` (configuration not stated) as the molecule, how does the pIC50 read?
A: 6.15

Q: How did the pIC50 turn out when `Cc1ccc(-c2ccc(Cl)cc2Oc2cnc(N)nc2N)o1` was run?
A: 5.97

Q: `CC[C@H]1CN(Cc2ccccc2Br)CC[C@H]1CCCc1ccnc2ccc(O)cc12` was tested. Which pIC50 did it give?
A: 6.00

Q: With `Cc1ccc(N2C(=O)C3C(C2=O)[C@]2(c4ccccc4)C(=O)[C@@]3(c3ccccc3)C(c3ccccc3)=C2c2ccccc2)c(C)c1` (some centres not stated) as the molecule, how does the pIC50 read?
A: 6.28

Q: With `CN(CC(=O)Nc1ccc(F)cc1)C(=O)c1ccc(-c2ccc(F)cc2)o1` as the molecule, how does the pIC50 read?
A: 6.03

Q: How did the pIC50 turn out when `Cc1ccc(NCC(=O)Nc2ccc(F)c(Cl)c2)cc1S(=O)(=O)N1CCOCC1` was run?
A: 7.22

Q: How did the pIC50 turn out when `Cc1cc(Nc2ccc(Cl)cc2)n2nc(C(F)(F)F)nc2n1` was run?
A: 6.92

Q: How did the pIC50 turn out when `CCOC(=O)N1CCN(CCCNc2c3ccccc3nc3ccccc23)CC1` was run?
A: 6.00

Q: `COc1cccc(CN(C(=O)Nc2ccccc2F)[C@H]2C[C@H]3C(=O)Nc4cc(F)ccc4C(=O)N3C2)c1` was tested. Which pIC50 did it give?
A: 6.08

Q: With `CCOc1ccc(-c2nonc2NC(=O)c2ccc(F)cc2)cc1OCC` as the molecule, how does the pIC50 read?
A: 6.48

Q: `COc1ccc(NC(=O)[C@H](Cc2ccccc2)Nc2cc(C)nc(Nc3ccccc3)n2)cc1` was tested. Which pIC50 did it give?
A: 6.00

Q: With `COc1ccc2nccc([C@@H](O)CN3CCC(NCc4ccc5c(c4)nnn5C(C)C)CC3)c2c1` as the molecule, how does the pIC50 read?
A: 6.19

Q: With `COc1ccc2nccc([C@@H](O)CN3CCC(NCc4ccc5sc(=O)[nH]c5c4)CC3)c2c1` as the molecule, how does the pIC50 read?
A: 6.54

Q: With `CN(C)CCNCc1nc(-c2ccc3c(Nc4ccc(Oc5ccccc5)cc4)ccnc3c2)cs1` as the molecule, how does the pIC50 read?
A: 6.13

Q: How did the pIC50 turn out when `O=C(NCC1COc2ccccc2O1)c1cnc2c(c1)nc(-c1cnc(-c3ccccc3)[nH]1)n2CCSCc1c(F)cccc1Cl` (configuration not stated) was run?
A: 6.02

Q: `Cc1ccc(C(=O)Nc2cccc(-c3ccc(N4CCN(C)CC4)nn3)c2)cc1[N+](=O)[O-]` was tested. Which pIC50 did it give?
A: 6.48

Q: `COc1ccc(C2C(C(=O)Nc3ccc(C)c(F)c3)c3cc(OC)c(OC)cc3C(=O)N2C)cc1` (configuration not stated) was tested. Which pIC50 did it give?
A: 6.02

Q: `CC(c1cccc(Nc2nccc(-c3c(-c4cccc(NC(=O)c5c(F)cccc5F)c4)nn4ncccc34)n2)c1)S(C)(=O)=O` (configuration not stated) was tested. Which pIC50 did it give?
A: 7.30

Q: `N=c1c2c(n(Cc3ccccc3)c3c1CCC3)CCCC2` was tested. Which pIC50 did it give?
A: 6.06

Q: How did the pIC50 turn out when `NC1CCN(CCNCc2cccc(-c3ccc(-c4nc5ccc(C(F)(F)F)cc5[nH]4)cc3)c2)C1` (configuration not stated) was run?
A: 6.05

Q: With `O=C(C=Cc1ccc(F)c(Br)c1)N1CCC(CN2CCC(c3c[nH]c4ccccc34)CC2)CC1` as the molecule, how does the pIC50 read?
A: 6.12

Q: How did the pIC50 turn out when `CC(=O)N1N=C(c2ccc(Cl)cc2)Sc2c1nc(-c1ccccc1)n2C(C)=O` was run?
A: 6.31

Q: With `O=C(c1ccc(O)c(-c2cc(Cl)cc(Cl)c2)c1)N1CCCC1` as the molecule, how does the pIC50 read?
A: 6.00

Q: How did the pIC50 turn out when `Cc1cc(F)ccc1[C@H]1CNCCN1C(=O)N(C)[C@@H](C)c1cc(C(F)(F)F)cc(C(F)(F)F)c1` was run?
A: 6.64

Q: `c1cc(CNCCN2CCNCC2)cc(-c2cccc(-c3nc4ccccc4[nH]3)c2)c1` was tested. Which pIC50 did it give?
A: 6.02

Q: How did the pIC50 turn out when `Cc1ccc2nc(Nc3ccc(Nc4nc5ccc(C)cc5[nH]4)c(C)c3)[nH]c2c1` was run?
A: 6.11

Q: How did the pIC50 turn out when `COCCNCc1ccc(-c2cccc(CN(C(=O)CCC3CCCC3)C3CCN(Cc4ccccc4)CC3)c2)cc1` was run?
A: 6.03

Q: How did the pIC50 turn out when `CC(Cc1ccc(Sc2ccccc2)cc1)NCC(O)c1cccc(C(F)(F)F)c1` (configuration not stated) was run?
A: 6.23

Q: With `CC(C)(C)c1ccc(CNC(=O)/C=C/c2ccc(-c3nc4ccc(C(C)(C)C)cc4[nH]3)cc2)cc1` as the molecule, how does the pIC50 read?
A: 6.27

Q: With `Cc1ccc(NC(=O)Nc2ccc(Cl)cc2)cc1-c1cccc(C(=O)Nc2ccc(F)cc2)c1` as the molecule, how does the pIC50 read?
A: 6.13

Q: With `Cn1nc(-c2ccc(NC(=O)Nc3cc(C(F)(F)F)ccc3F)cc2)c2cnc(NCCc3cnc[nH]3)nc21` as the molecule, how does the pIC50 read?
A: 6.09

Q: `OCCN1CCN(Cc2cccc(-c3cccc(-c4nc5ccc(F)cc5[nH]4)c3)c2)CC1` was tested. Which pIC50 did it give?
A: 6.15

Q: With `CS(=O)(=O)c1ccccc1CNC(=O)c1ccc(-c2ccc(-c3nc4ccc(C(F)(F)F)cc4[nH]3)s2)cc1` as the molecule, how does the pIC50 read?
A: 6.62

Q: With `O=C(NCC1CCC1)c1cnc(Nc2cccc(Cl)c2)nc1N1CCC1` as the molecule, how does the pIC50 read?
A: 6.07

Q: `CC(C)(CNCc1cccc(Oc2ccccc2)c1)c1nc(-c2ccc(Cl)c(O)c2)c(-c2ccnc(N)n2)[nH]1` was tested. Which pIC50 did it give?
A: 6.12

Q: How did the pIC50 turn out when `Cc1cccc(NC(=O)NCc2ccccc2)n1` was run?
A: 6.03

Q: With `Fc1cccc(COc2ccc(Nc3ncnc4sc(C#CCNC5CCC5)cc34)cc2Cl)c1` as the molecule, how does the pIC50 read?
A: 6.06
